Results taken from US20060122198A1, “Antiepileptic agent” (Kyowa Hakko Kogyo Co., Ltd., priority 2003, published 2006).

What was measured:
male mice of dd-strain = details: mouse, in vivo, po, 7 days
Method: A test compound was orally administered to male mice (body weight: 20±1 g) of dd-strain which comprises three mice per group. State of death after 7 days from the administration was observed and the minimum lethal dose (MLD) was determined.

[1] = system: convulsion induced by administration of reserpine and electric stimulation; assay: Antiepileptic action: tonic extended convulsion induced by reserpine and electric stimulation; type: in vivo; details: male ddY mice treated with reserpine 5 mg/kg i.p.; test compound 30 mg/kg orally; electric stimulation 1,000 V, 50 mA, 0.2 second after one hour; compared with reserpine + solvent group, p<0.01 (Aspine-Welch test)
Method: Convulsion induced by administration of reserpine and electric stimulation has been known as an effective model for epilepsy [European Journal of Pharmacology, 1994, volume 23, page 260]. Male mice (body weight: 15 to 17 g; Nippon SLC, Hamamatsu) of ddY strain of four weeks age were subjected to a preliminary breeding and 65 mice where body weight became 22.4 to 26.0 g were used for the experiment. Fifteen mice among the above were used as a non-treated group. Reserpine (Apoplon Injection 1 mg; Daiichi Seiyaku) diluted with distilled water for injection (Otsuka Seiyaku, Naruto) was intraperitoneally administered (treatment with reserpine) at the dose of 5 mg/kg to each of the remaining 50 mice and the experiment was carried out after 18 to 24 hours from the administration. Among the mice subjected to the treatment with reserpine, two groups each comprising ten mice were randomly selected and used as a group administered with a solvent and a group administered with the test compound. The test compound was used as a suspension of a 0.5% MC solution [distilled water for injection containing 0.5% methyl cellulose 400 cP (Wako Pure Chemicals)] and Compound (I) was orally administered at the dose of 30 mg/kg (10 mL/kg in terms of volume) to the mice treated with reserpine (a group administered with the test compound). […]

COc1cc(/C=C/c2nc3c(c(=O)n(C)c(=O)n3C)n2C)cc(OC)c1OC [Compound 1, (E)-8-(3,4,5-Trimethoxystyryl)caffeine]
minimum lethal dose (MLD) (male mice of dd-strain): > 1,000 mg/kg
duration of convulsion (tonic extended convulsion) [1]: significant shortening action

CCCn1c(=O)c2c(nc(/C=C/c3ccc(OC)c(OC)c3)n2C)n(CCC)c1=O [Compound 3, (E)-8-(3,4-Dimethoxystyryl)-7-methyl-1,3-dipropylxanthine]
duration of convulsion (tonic extended convulsion) [1]: significant shortening action
